Reference: patent US4377583A, “N-Methyl-D-glucamine salt of with 3,4-dihydro-5-methyl-6-(2-methylpropyl)-4-oxothieno[2,3-d]pyrimidine-2-c arboxylic acid” (Mead Johnson & Company, priority 1981, dated 1983)
Structures can show the parent of a compound that is named as a salt.

Legend:
[1] = Stability of aqueous solutions on extended storage
pH of salts of MJ 12175 = type: physicochemical; settings: room temperature (about 25° C.)
Description: (§1) Many conventional pharmaceutically acceptable amine salts of MJ 12175 are not well suited for the present use due to limited solubility, lack of stability, pH ranges differing sufficiently from physiological pH (~7.4) to the extent that irritation of tissue becomes a problem.
(§2) The amine salts of MJ 12175 shown in Table 1 were first prepared in situ by adding the amine to a suspension of MJ 12175 in a quantity of water sufficient to give a 4% aqueous solution of the resulting salt. When a precipitate formed on amine addition indicating relative insolubility, pH was not measured as in the cases of salts 4 through 8 in Table 1. Although solutions were obtained with the other salts formed in situ supersaturation of these solutions appears likely since the four salts (Nos. 2, 3, 9, 11) which were isolated were less than 4% soluble on redissolution. […] The three crystalline salts were the only examples where solid precipitated from the in situ solutions on standing. Of the three crystalline isolated amine salts of MJ 12175, the glucamine salt best meets the water solubility and pH criteria.

[2] = Water solubility of isolated salts of MJ 12175 (redissolution); type: physicochemical; settings: for H2O Solubility isolated salt: room temperature (about 25° C.)
Description: as §1, §2

[3] = Physical state of isolated salts; type: physicochemical
Description: as §2

[4] = cited from earlier work
[5] = Water solubility of salts of MJ 12175 formed in situ (4% aqueous solution); type: physicochemical; settings: room temperature (about 25° C.); precipitate formed on amine addition, indicating relative insolubility
Description: as §1, §2

SMILES: Cc1c(CC(C)C)sc2nc(C(=O)O)[nH]c(=O)c12 [Salt No. 2, 3,4-Dihydro-5-methyl-6-(2-methylpropyl)-4-oxothieno[2,3-d]pyrimidine-2-carboxylic Acid N-methyl-D-glucamine Salt]
- stability of aqueous solutions [1]: demonstrated the stability of its aqueous solutions on extended storage
- pH (pH of salts of MJ 12175): 6.4
- H2O Solubility isolated salt [2]: 12000 µg/mL
- solubility ([2]; water, isolated salts, redissolution): < 40000 µg/mL

SMILES: Cc1c(CC(C)C)sc2nc(C(=O)O)[nH]c(=O)c12 [compound 11]
- physical state of isolated salt [3]: remained a non-crystallinetar during attempted purification
- pH (pH of salts of MJ 12175): 6.42
- solubility of isolated salts on redissolution ([2]; isolated salts, redissolution): less than 4%

SMILES: Cc1c(CC(C)C)sc2nc(C(=O)O)[nH]c(=O)c12 [compound 14]
- pH (pH of salts of MJ 12175): 9.59

SMILES: Cc1c(CC(C)C)sc2nc(C(=O)O)[nH]c(=O)c12 [compound 13]
- pH (pH of salts of MJ 12175): 8.08

SMILES: Cc1c(CC(C)C)sc2nc(C(=O)O)[nH]c(=O)c12 [compound 12]
- pH (pH of salts of MJ 12175): 6.29

SMILES: Cc1c(CC(C)C)sc2nc(C(=O)O)[nH]c(=O)c12 [potassium salt]
- pH of solutions ([4]; not desirable for nasal instillation): alkaline pH
- water solubility ([4]; relative to MJ 12175): improved water solubility

SMILES: Cc1c(CC(C)C)sc2nc(C(=O)O)[nH]c(=O)c12 [MJ 12175, 3,4-Dihydro-5-methyl-6-(2-methylpropyl)-4-oxothieno[2,3-d]pyrimidine-2-carboxylic Acid]
- pH (pH of salts of MJ 12175; listed as 1): 11.22
- H2O Solubility isolated salt ([2]; listed as 1): 8900 µg/mL

SMILES: Cc1c(CC(C)C)sc2nc(C(=O)O)[nH]c(=O)c12 [compound 9]
- pH (pH of salts of MJ 12175): 6.81
- solubility of isolated salts on redissolution ([2]; isolated salts, redissolution): less than 4%
- H2O Solubility isolated salt [2]: < 1000 µg/mL

SMILES: Cc1c(CC(C)C)sc2nc(C(=O)O)[nH]c(=O)c12 [compound 4]
- H2O Solubility in situ (ppt) [5]: ppt

SMILES: Cc1c(CC(C)C)sc2nc(C(=O)O)[nH]c(=O)c12 [compound 10]
- pH (pH of salts of MJ 12175): 4.55

SMILES: Cc1c(CC(C)C)sc2nc(C(=O)O)[nH]c(=O)c12 [compound 3]
- pH (pH of salts of MJ 12175): 4.7
- solubility of isolated salts on redissolution ([2]; isolated salts, redissolution): less than 4%
- H2O Solubility isolated salt [2]: 5000 µg/mL
